A word on the IC50: it is the midpoint of a concentration-inhibition curve. One may read the EC50 as the midpoint of the concentration-response curve. In general, Ki refers to the dissociation constant of the complex between target and ligand, obtained from inhibition or displacement. The term CC50 denotes the concentration at which the toxic effect on the cells reaches its halfway point. The term AC50 denotes the concentration at which the activity in the assay is half-maximal.

The source made the active and inactive calls.

One assay concerns the target T1, Aminopeptidase N (Plasmodium falciparum FcB1/Columbia, UniProt O96935).
T1 sequence (O96935 whole entry): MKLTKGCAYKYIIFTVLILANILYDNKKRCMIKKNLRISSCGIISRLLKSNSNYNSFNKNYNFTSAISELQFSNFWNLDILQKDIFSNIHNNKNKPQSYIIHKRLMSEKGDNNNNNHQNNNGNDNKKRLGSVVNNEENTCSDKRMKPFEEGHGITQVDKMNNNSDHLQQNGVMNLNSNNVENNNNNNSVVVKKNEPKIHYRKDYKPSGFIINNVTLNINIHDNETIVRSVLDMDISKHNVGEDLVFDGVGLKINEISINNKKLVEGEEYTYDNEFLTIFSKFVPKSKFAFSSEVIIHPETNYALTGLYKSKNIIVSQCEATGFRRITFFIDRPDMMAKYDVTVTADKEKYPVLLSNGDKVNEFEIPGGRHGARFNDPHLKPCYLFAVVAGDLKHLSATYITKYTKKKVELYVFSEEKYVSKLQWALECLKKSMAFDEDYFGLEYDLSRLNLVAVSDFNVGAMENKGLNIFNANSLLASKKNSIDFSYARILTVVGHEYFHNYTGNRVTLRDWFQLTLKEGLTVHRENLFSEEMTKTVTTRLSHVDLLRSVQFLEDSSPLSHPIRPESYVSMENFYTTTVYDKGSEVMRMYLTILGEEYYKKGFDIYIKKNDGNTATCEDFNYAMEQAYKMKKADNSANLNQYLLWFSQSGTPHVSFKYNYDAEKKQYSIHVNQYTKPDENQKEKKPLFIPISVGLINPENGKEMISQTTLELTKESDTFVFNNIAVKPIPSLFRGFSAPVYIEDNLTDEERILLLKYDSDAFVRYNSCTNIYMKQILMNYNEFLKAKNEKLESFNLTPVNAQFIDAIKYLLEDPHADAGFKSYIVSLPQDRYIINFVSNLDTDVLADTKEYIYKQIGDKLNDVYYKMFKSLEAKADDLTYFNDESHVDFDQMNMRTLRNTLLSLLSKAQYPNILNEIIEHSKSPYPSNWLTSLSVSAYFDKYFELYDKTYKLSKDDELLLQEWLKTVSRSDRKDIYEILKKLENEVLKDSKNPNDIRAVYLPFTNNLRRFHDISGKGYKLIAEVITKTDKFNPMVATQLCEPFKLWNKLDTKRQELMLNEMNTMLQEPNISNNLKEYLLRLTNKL
Briefly: malaria alanyl aminopeptidase activity blockers – biochemical, fluorogenic H-Leu-NHMec substrate, 1536-well (AID 1445). The arrangement: species or system Plasmodium falciparum 3D7, 3D7.

For assay [1], the target named is Glyceraldehyde-3-phosphate dehydrogenase (Homo sapiens, UniProt P04406).
Assay [2] addresses T2, Ubiquitin-conjugating enzyme E2 N (Homo sapiens, UniProt P61088).
T2 sequence (P61088 whole entry): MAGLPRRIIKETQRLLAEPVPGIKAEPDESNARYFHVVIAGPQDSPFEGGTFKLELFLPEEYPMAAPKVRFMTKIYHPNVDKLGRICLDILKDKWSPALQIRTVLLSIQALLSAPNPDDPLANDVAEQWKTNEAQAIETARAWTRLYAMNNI
It counts as functional.

Assay [3] addresses T3, Tyrosine-protein phosphatase non-receptor type 7 (Homo sapiens, UniProt P35236).
T3 sequence (P35236 whole entry): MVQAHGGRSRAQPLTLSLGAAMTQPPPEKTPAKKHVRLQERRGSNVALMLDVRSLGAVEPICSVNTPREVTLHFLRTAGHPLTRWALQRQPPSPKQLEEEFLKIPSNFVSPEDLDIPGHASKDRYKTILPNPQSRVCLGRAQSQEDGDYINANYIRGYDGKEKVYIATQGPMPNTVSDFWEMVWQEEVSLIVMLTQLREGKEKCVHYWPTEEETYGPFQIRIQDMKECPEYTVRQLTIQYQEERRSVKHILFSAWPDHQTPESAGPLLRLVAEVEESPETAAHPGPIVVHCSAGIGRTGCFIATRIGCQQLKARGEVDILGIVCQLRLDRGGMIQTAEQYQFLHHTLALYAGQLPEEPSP
It counts as functional.

Assay [4] addresses T4, Heat shock factor protein 1 (Mus musculus, UniProt P38532).
T4 sequence (P38532 whole entry): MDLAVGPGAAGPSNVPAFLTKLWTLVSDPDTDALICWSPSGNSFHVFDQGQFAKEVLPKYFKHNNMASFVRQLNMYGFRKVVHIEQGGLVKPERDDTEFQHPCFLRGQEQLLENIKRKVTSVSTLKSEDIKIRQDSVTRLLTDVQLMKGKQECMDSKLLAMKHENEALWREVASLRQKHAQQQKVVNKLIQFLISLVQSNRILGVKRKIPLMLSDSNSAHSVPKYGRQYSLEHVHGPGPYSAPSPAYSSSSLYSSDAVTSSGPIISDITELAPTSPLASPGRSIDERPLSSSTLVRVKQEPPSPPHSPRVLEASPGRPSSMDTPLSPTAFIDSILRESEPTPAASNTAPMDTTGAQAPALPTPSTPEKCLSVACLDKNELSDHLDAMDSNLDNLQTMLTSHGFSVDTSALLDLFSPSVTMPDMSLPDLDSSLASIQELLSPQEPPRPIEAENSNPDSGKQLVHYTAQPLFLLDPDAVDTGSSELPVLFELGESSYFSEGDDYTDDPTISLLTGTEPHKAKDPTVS
Briefly: decrease of HSF1-responsive luciferase luminescence – cell-based, NIH3T3, dose retest, confirmation (AID 2382).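 Note: NIH3T3 fibroblasts with HSF1-driven luciferase reporter stressed by proteasome inhibitor MG132; luminescence from HSF1-driven luciferase expression after 8 hours of MG132 stress.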 It counts as functional.

The next assay concerns BJ. Nature of the assay: BJ-TERT fibroblast viability loss – cell-based, RAS-independent, luminescence, dose response (AID 1933). It counts as functional. The following applies: Homo sapiens.
Assay [5] addresses Calcium/calmodulin-dependent protein kinase type 1 (Homo sapiens, UniProt Q14012). It counts as functional.
The target of assay [6] is Cyclin-dependent kinase 2 (Homo sapiens, UniProt P24941). It counts as functional.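 Note: CDK2 measured as one member of a broad kinome profiling panel.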
The target of assay [7] is Protein kinase C delta type (Homo sapiens, UniProt Q05655). It counts as functional.
For another assay, the target named is Insulin receptor (Homo sapiens, UniProt P06213). It counts as functional.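 Note: insulin receptor kinase tested as one member of a kinome-wide kinase panel.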
Assay [8] deals with Tyrosine-protein kinase Srms (Homo sapiens, UniProt Q9H3Y6). It counts as functional.
Assay [9] concerns the target RAC-gamma serine/threonine-protein kinase (Homo sapiens, UniProt Q9Y243). It counts as functional.
For assay [10], the target named is Protein-tyrosine kinase 2-beta (Homo sapiens, UniProt Q14289). It counts as functional.
In assay [11] the target is Calcium/calmodulin-dependent protein kinase type II subunit alpha (Homo sapiens, UniProt Q9UQM7). Briefly: Navigating the Kinome. Panel member name: CAMK2A. It counts as functional.
For another assay, the system named is Vero. Nature of the assay: viability of Vero cells under compound – cytotoxicity control for flavivirus capping enzyme inhibitors (AID 588742). It counts as functional. To be noted: Chlorocebus sabaeus.
For assay [12], the target named is Heat shock protein HSP 90-alpha (Homo sapiens, UniProt P07900). It counts as functional, organism-based.
A short description of assay [13]: Luminescence Cell-Based Dose Retest to Confirm Inhibitors of Cancer Stem Cells. [Related pubchem assays (depositor defined):AID2717, AID2721]. It counts as functional. To be noted: Homo sapiens.

Chain of Glyceraldehyde-3-phosphate dehydrogenase (P04406 whole entry): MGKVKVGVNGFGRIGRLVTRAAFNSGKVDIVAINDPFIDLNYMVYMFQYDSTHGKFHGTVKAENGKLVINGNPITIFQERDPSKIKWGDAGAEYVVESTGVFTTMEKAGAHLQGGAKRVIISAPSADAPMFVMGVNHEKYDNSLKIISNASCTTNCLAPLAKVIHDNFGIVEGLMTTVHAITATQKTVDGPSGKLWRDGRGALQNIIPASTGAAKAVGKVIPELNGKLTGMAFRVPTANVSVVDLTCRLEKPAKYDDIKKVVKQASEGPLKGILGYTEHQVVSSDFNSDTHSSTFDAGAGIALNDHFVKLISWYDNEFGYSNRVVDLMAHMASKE
Chain of Protein-tyrosine kinase 2-beta (Q14289 whole entry): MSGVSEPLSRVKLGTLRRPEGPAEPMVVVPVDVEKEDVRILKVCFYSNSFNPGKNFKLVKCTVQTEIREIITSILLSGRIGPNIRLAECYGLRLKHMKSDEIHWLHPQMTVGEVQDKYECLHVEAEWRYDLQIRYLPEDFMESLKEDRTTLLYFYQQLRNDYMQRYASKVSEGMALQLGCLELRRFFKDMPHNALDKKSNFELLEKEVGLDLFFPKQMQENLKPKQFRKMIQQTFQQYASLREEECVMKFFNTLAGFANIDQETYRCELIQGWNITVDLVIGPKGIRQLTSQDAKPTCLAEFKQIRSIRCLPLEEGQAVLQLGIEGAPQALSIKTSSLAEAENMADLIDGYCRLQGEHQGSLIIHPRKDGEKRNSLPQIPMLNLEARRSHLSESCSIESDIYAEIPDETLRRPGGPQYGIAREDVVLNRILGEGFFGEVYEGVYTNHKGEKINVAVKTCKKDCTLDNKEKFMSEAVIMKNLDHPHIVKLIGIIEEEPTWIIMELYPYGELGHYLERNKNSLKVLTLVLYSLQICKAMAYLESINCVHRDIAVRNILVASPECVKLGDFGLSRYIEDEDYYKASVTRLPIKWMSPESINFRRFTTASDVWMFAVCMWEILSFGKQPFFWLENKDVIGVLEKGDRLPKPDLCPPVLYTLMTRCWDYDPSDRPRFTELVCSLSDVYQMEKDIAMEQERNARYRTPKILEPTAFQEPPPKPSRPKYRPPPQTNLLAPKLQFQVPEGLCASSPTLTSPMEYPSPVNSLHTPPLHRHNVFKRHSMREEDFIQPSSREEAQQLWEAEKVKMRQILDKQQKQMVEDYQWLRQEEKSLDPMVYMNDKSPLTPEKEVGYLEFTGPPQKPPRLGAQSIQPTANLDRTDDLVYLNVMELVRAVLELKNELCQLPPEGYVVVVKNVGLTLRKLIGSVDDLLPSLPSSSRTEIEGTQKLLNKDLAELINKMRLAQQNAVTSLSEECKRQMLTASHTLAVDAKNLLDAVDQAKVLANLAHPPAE
Chain of Protein kinase C delta type (Q05655 whole entry): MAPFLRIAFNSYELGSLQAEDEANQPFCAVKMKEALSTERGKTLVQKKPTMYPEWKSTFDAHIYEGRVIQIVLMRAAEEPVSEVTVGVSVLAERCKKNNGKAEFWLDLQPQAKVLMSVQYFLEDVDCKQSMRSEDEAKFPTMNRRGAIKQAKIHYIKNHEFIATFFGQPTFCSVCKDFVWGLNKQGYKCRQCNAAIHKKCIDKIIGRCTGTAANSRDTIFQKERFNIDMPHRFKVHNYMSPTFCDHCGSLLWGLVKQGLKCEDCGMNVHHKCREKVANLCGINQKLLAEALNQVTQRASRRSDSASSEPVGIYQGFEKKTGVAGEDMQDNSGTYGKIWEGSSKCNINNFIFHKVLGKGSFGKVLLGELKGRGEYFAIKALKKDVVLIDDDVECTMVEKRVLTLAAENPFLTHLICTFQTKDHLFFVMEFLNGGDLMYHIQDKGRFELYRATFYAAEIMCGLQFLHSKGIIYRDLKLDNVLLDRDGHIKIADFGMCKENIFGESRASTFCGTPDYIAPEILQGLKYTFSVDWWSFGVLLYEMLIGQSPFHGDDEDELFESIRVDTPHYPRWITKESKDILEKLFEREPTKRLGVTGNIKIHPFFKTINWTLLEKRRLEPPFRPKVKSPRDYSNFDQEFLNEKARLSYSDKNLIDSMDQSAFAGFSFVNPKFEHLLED
Chain of Calcium/calmodulin-dependent protein kinase type 1 (Q14012 whole entry): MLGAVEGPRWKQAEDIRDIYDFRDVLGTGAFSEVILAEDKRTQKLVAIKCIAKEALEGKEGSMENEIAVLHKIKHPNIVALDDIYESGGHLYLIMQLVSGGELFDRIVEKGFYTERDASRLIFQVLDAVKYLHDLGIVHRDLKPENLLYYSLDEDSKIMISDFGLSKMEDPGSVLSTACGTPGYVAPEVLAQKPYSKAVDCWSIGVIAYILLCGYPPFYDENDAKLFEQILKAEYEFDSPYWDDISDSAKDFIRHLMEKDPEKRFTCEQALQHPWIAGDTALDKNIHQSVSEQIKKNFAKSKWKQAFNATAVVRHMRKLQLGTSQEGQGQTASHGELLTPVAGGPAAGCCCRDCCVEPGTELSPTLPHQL
Chain of Tyrosine-protein kinase Srms (Q9H3Y6 whole entry): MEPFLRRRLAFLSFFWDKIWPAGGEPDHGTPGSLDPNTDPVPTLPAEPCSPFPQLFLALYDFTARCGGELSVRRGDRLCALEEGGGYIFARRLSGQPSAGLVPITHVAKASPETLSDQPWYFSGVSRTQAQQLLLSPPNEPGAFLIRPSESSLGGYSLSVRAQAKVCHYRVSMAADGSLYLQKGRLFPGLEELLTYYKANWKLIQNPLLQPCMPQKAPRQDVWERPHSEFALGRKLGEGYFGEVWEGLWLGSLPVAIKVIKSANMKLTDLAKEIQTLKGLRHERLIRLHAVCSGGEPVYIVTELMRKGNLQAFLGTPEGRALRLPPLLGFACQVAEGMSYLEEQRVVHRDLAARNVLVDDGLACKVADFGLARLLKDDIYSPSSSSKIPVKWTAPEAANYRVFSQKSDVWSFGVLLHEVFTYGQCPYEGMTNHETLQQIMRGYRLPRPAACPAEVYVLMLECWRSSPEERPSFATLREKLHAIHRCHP
Chain of Insulin receptor (P06213 28-758 limits assumed): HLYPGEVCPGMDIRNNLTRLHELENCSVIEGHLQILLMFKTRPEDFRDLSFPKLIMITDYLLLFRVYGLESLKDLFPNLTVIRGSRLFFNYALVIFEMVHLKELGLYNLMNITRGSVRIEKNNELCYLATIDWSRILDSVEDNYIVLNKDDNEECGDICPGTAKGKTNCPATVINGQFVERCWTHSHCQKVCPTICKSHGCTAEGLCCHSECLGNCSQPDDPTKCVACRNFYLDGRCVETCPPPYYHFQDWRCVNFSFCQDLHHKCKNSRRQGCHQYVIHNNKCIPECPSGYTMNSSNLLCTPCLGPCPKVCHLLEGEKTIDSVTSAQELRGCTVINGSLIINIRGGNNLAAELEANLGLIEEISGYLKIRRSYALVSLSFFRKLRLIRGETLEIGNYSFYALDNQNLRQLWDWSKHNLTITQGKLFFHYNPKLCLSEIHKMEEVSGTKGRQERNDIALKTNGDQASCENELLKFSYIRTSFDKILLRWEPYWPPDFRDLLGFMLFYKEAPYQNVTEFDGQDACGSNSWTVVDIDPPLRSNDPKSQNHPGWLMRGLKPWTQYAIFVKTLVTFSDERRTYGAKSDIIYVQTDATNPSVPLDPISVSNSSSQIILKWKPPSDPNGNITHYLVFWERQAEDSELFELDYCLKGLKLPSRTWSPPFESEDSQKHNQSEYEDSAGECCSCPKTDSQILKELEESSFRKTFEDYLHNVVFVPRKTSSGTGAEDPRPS
Chain of Insulin receptor (P06213 763-1382 limits assumed): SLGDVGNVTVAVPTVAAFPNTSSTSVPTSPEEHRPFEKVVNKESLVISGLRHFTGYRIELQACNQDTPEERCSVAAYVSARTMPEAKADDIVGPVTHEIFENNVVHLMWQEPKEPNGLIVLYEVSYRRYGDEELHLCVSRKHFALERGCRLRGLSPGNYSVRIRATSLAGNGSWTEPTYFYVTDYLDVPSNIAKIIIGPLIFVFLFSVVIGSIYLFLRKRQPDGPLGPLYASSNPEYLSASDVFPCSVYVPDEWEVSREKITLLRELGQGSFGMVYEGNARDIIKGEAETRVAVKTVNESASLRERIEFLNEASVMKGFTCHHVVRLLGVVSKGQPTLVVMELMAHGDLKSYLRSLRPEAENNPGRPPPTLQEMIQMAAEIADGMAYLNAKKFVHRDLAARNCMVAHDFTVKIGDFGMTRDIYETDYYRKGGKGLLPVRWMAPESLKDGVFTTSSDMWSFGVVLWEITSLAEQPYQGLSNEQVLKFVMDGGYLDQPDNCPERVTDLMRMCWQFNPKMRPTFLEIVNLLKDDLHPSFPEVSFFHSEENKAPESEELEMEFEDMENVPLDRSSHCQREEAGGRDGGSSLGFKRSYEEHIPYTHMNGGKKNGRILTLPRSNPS
Chain of RAC-gamma serine/threonine-protein kinase (Q9Y243 whole entry): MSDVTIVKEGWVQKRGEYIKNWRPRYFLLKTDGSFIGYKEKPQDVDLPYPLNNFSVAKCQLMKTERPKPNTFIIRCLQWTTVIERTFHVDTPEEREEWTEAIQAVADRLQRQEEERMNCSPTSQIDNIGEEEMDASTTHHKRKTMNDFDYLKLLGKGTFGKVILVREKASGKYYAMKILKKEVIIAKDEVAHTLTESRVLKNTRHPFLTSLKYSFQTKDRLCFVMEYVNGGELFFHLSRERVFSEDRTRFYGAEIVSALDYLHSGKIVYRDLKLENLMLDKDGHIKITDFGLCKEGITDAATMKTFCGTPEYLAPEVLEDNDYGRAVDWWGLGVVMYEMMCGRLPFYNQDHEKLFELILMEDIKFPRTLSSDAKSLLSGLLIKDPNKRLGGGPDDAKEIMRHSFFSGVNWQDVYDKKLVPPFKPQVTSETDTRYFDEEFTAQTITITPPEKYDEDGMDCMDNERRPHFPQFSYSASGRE

For the compound `Cc1cc([N+](=O)[O-])cc(/C=N\NC(=O)C2COc3ccccc3O2)c1O` (configuration not stated), the IC50 at Aminopeptidase N is 3.05 µM (active).
On to `COc1cccc2c1NC(C(=O)O)C1CC=CC21` (configuration not stated), for which the IC50 is 88.9 µM (active) in assay [1], > 20 µM (inactive) in assay [2] and 11.3 µM (active) in assay [3].
Consider `CCc1ccc(S(=O)(=O)/N=C2\C=C(Nc3ccc(O)cc3)C(=O)c3ccccc32)cc1`, for which the EC50 in [4] was 1.16 µM (active); in the assay on BJ, 1.51 µM (active).
As to `Cc1ccc(F)c(NC(=O)Nc2ccc(-c3cccc4[nH]nc(N)c34)cc2)c1` [LINIFANIB], the Ki in [5] was 6.31 µM (active); in assay [6], > 7.94 µM (inactive); in assay [7] it was > 7.94 µM (inactive); on Insulin receptor, 0.794 µM (active); in assay [8] it was 1.58 µM (active); in assay [9], > 10 µM (inactive). Also, in assay [10], the Ki was > 1.58 µM (inactive).
As to `COc1c(-c2nc3ccccc3[nH]2)c(O)cc2oc(C)cc(=O)c12`, in assay [11], the Ki was 1 µM (active).
As for `O=C1/C(=C\c2cccc(O)c2O)SC(=S)N1Cc1ccccc1`, the CC50 in the assay with Vero is 16.1 µM (active). Moreover, the AC50 was 13.4 µM (active) in assay [12] and 1.67 µM (active) in assay [13].

The record behind these values is ChEMBL document CHEMBL1201862, “PubChem BioAssay data set” (2004).
